Assay results published in US20050282743A1, “Molecular interactions in cells” (Arbor Vita Corporation, priority 2001, published 2005).
Read-outs that look alike come from different tables or passages of the source. Peptide text beside a SMILES is read from it. * marks the point of attachment. Biotin = O=C1N[C@H]2[C@H](CS[C@H]2CCCCC(=O)*)N1

Tests used:
Format in all cases: binding
[1] = target: T1, PDZ-domain polypeptide (GST/PDZ fusion protein) (Homo sapiens, UniProt Q8TEW0); assay: Apparent affinity (Kd) by titration of PL peptide in the G assay; details: PDZ PAR3, PDZ Domain 3
T1 construct: made in house; host or cells: E. coli (DH5alpha, BL21 or JM109)
T1 sequence (Q8TEW0 whole entry, the tested form may be a part): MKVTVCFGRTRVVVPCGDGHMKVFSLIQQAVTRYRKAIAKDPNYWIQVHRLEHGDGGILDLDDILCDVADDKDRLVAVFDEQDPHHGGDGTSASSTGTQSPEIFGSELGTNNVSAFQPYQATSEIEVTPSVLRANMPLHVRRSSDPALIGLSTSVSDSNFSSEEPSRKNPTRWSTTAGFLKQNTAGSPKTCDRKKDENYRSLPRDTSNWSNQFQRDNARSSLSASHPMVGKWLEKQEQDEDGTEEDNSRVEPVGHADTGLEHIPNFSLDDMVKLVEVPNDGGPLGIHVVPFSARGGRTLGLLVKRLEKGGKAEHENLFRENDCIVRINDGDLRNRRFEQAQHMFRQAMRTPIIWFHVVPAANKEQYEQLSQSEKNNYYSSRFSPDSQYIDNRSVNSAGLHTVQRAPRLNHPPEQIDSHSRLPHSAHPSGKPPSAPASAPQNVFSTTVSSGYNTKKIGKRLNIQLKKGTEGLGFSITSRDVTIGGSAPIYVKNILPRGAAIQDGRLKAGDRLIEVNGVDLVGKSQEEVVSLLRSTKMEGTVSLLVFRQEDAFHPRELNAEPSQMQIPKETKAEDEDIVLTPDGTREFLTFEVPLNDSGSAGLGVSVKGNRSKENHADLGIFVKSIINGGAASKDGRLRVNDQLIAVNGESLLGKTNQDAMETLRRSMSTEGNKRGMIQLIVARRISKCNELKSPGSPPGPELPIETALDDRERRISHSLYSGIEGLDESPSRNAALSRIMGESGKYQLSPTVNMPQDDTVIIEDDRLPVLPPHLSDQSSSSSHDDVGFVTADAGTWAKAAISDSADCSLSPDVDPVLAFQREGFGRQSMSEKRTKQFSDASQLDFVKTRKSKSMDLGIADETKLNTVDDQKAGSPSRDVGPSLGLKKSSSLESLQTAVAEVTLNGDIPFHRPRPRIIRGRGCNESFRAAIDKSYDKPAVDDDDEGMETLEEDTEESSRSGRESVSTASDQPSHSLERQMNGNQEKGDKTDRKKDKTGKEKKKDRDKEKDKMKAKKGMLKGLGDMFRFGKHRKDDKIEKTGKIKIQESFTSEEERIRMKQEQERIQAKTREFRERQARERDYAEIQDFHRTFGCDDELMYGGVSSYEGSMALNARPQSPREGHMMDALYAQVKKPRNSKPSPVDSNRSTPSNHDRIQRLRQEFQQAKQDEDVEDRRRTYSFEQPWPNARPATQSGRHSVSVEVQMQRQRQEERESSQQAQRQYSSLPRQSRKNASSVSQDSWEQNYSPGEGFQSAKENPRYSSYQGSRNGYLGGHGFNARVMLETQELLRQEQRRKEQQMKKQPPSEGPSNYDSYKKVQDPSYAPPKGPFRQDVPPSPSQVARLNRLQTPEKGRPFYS
Summary of the method: (§1)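 A fixed concentration of GST/PDZ fusion protein, 5 ug/ml by default, was mixed in solution with increasing labeled PL peptide (e.g. 0.1 uM-1 mM). Reaction times ranged from 10 minutes to 2 days at 4-37° C. Complexes were separated from free peptide and detected via the label as in the G assay, apparent affinity coming from the saturating concentration.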

[2] = target: T2, PDZ-domain polypeptide (GST/PDZ fusion protein) (Homo sapiens, UniProt Q15700); assay: as above; details: PDZ DLG2, PDZ Domain 2
T2 construct: made in house; host or cells: E. coli (DH5alpha, BL21 or JM109)
T2 sequence (Q15700 whole entry, the tested form may be a part): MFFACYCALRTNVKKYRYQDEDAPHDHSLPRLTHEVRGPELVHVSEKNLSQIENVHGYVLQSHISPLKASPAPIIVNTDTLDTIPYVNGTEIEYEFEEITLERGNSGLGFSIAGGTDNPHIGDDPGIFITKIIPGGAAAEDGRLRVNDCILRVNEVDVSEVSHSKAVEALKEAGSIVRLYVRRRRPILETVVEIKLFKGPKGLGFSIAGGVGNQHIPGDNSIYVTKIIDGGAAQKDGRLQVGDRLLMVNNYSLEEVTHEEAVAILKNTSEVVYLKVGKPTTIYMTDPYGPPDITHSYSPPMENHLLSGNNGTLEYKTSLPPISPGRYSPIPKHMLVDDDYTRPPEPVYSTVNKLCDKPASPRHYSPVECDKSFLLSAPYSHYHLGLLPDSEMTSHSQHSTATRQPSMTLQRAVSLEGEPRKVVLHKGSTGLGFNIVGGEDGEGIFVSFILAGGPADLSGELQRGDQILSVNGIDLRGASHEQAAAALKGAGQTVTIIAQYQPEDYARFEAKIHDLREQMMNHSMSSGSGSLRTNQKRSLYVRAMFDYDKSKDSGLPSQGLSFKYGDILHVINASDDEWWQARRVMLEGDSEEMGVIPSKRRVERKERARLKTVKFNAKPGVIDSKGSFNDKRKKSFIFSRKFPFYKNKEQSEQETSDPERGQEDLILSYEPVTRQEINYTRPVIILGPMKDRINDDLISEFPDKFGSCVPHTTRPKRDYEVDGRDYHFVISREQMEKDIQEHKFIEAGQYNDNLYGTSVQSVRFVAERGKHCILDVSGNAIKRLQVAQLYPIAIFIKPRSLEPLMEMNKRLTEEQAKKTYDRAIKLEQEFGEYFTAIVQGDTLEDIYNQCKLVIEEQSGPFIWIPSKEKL
Summary of the method: as §1

[3] = target: T3, PDZ-domain polypeptide (GST/PDZ fusion protein) (Homo sapiens, UniProt Q12959); assay: as above
T3 construct: made in house; host or cells: E. coli (DH5alpha, BL21 or JM109)
T3 sequence (Q12959 whole entry, the tested form may be a part): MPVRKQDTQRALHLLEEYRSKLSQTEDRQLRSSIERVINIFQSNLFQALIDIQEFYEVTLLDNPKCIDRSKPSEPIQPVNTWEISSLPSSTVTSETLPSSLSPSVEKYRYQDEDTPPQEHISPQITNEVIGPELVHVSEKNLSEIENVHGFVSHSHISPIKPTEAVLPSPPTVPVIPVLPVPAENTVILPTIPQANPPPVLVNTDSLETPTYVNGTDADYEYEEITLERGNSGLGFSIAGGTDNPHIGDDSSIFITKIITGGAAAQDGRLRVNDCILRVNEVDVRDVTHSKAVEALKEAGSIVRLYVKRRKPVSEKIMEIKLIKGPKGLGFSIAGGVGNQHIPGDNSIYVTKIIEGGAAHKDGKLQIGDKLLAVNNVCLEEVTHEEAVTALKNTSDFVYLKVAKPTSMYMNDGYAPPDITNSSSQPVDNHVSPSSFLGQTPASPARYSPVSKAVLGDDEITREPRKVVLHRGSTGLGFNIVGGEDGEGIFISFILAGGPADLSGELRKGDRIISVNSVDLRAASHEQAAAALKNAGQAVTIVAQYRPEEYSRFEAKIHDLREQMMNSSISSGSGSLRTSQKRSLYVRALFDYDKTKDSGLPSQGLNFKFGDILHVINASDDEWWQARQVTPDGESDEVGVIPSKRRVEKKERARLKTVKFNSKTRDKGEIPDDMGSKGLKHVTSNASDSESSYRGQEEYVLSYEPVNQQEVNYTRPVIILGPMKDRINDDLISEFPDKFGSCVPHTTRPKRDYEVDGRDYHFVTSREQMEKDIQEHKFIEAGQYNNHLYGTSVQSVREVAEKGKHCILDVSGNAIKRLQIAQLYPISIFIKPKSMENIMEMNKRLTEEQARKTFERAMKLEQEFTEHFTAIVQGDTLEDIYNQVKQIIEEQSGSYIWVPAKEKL
Summary of the method: as §1

[4] = target: T4, PDZ-domain polypeptide (GST/PDZ fusion protein) (Homo sapiens, UniProt Q9NRD5); assay: as above; details: PDZ PICK1, PDZ Domain 1
T4 construct: made in house; host or cells: E. coli (DH5alpha, BL21 or JM109)
T4 sequence (Q9NRD5 whole entry, the tested form may be a part): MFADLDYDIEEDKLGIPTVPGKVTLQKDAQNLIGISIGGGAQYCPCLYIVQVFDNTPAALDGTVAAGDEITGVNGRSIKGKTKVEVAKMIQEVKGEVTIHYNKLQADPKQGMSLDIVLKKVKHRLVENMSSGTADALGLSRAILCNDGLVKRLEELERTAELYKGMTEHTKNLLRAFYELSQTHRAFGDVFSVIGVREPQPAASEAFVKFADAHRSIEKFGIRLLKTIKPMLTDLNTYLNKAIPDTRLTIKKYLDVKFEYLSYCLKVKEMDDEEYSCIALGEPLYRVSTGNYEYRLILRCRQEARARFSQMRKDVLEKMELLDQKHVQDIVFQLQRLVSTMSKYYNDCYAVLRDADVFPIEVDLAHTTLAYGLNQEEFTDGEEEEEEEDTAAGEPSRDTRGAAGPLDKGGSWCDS
Summary of the method: as §1

[5] = target: T5, PDZ-domain polypeptide (GST/PDZ fusion protein) (Homo sapiens, UniProt P78352); assay: as above
T5 construct: made in house; host or cells: E. coli (DH5alpha, BL21 or JM109)
T5 sequence (P78352 whole entry, the tested form may be a part): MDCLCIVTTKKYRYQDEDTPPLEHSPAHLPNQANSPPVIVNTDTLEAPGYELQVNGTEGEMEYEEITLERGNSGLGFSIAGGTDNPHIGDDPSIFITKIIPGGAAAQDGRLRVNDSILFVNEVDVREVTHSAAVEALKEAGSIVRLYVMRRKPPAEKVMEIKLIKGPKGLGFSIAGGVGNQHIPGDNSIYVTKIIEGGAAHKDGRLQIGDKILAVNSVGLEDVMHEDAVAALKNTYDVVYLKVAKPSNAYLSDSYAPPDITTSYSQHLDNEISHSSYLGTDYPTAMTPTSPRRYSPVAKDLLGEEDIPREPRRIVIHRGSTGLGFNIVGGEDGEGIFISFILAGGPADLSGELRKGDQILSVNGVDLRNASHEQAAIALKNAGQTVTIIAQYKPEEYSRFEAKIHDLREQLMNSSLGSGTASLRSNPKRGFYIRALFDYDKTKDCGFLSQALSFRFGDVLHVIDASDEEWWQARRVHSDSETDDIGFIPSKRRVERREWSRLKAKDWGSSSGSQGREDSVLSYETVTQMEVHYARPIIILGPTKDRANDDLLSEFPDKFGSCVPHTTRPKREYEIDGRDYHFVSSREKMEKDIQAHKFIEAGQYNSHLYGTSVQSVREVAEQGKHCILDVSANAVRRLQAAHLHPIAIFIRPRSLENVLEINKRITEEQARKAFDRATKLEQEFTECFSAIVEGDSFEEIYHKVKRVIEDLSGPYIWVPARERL
Summary of the method: as §1

TIP-1 (GST-TIP-1) = target: T6, TIP-1 (GST-TIP-1) (Homo sapiens, UniProt O14907, I73S); assay: G assay with unlabeled 8 amino acid competitor peptide (Example 4, FIGS. 2B, 2C)
T6 construct: made in house; host or cells: E. coli DH5alpha
T6 sequence (O14907 3-123 I73S): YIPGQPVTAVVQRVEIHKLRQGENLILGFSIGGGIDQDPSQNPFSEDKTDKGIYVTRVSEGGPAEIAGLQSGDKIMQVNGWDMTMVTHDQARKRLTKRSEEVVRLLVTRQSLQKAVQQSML
Description: FIGS. 2A, 2B and 2C show binding and competition assays with the PDZ ligands of CD95 (Fas) and Tax for the PDZ domain of TIP-1.
Upon infection, the higher affinity of Tax could preferentially bind TIP-1 protein available in the cell, removing the TIP-1 bound to CD95 (Fas) and thereby rendering the cell less able to undergo apoptosis. In order to test this, competition experiments between Tax and CD95 for TIP-1 binding were performed using the ‘G Assay’, but adding additional unlabeled competitor peptide at step 9 of the ‘G Assay’ presented in EXAMPLE 3 section D.
FIGS. 2B and 2C show the results of these experiments. The graphs show the amount of binding of the biotinylated 20 amino acid peptide in the presence of increasing concentrations of unlabeled 8 amino acid competitor.

[6] = read-out: Peptide Optimal Conc (Kd by titration of the PL peptide)
[7] = Peptide Optimal Conc (Kd by titration of the PL peptide)

Work on `CC[C@H](C)[C@H](NC(=O)[C@H](Cc1ccc(O)cc1)NC(=O)[C@H](CC(C)C)NC(=O)[C@H](CCC(N)=O)NC(=O)[C@H](Cc1c[nH]cn1)NC(=O)[C@H](CO)NC(=O)[C@H](C)NC(=O)[C@H](CC(C)C)NC(=O)[C@@H](NC(=O)[C@H](CC(=O)O)NC(=O)[C@H](CCSC)NC(=O)[C@H](Cc1ccccc1)NC(=O)[C@@H]1CCCN1C(=O)[C@H](CCCNC(=N)N)NC(=O)[C@@H](NC(=O)[C@H](CC(C)C)NC(=O)[C@H](CC(N)=O)NC(=O)[C@H](CC(=O)O)NC(=O)[C@@H](NC(=O)[C@H](CO)NC(=O)CCCC[C@@H]1SC[C@@H]2NC(=O)N[C@@H]21)[C@@H](C)O)C(C)C)[C@@H](C)O)C(=O)O` [presenilin-2] (Biotin-STDNLVRPFMDTLASHQLYI-OH; C-terminus assumed) yielded a Kd ([1]; titration of the PL peptide, read-out: Peptide Optimal Conc (Kd, dissociation constant)) of 2000 nM.
For `CSCC[C@H](NC(=O)[C@H](C)NC(=O)[C@H](CCCNC(=N)N)NC(=O)CNC(=O)[C@@H](NC(=O)[C@H](Cc1c[nH]c2ccccc12)NC(=O)[C@H](CCCNC(=N)N)NC(=O)CNC(=O)CCCC[C@@H]1SC[C@@H]2NC(=O)N[C@@H]21)[C@@H](C)O)C(=O)N[C@@H](CO)C(=O)N[C@@H](C)C(=O)N[C@@H](Cc1c[nH]c2ccccc12)C(=O)N[C@@H](CCCCN)C(=O)N1CCC[C@H]1C(=O)N[C@H](C(=O)N[C@@H](CCCNC(=N)N)C(=O)N[C@@H](CCCNC(=N)N)C(=O)N[C@@H](CCC(=O)O)C(=O)N[C@H](C(=O)N[C@@H](CCC(=O)O)C(=O)N[C@H](C(=O)O)C(C)C)[C@@H](C)O)[C@@H](C)O` [HPV E6 #35 (modified)] (Biotin-GRWTGRAMSAWKPTRRETEV-OH; C-terminus assumed), the Kd [2, 6] was 200 nM.
For `CC[C@H](C)[C@H](NC(=O)[C@H](CCC(=O)O)NC(=O)[C@H](CO)NC(=O)[C@H](CCC(=O)O)NC(=O)[C@H](CCCNC(=N)N)NC(=O)[C@H](CCCNC(=N)N)NC(=O)[C@H](CC(C)C)NC(=O)[C@@H]1CCCN1C(=O)[C@H](CCCNC(=N)N)NC(=O)[C@@H]1CCCN1C(=O)[C@H](CCC(=O)O)NC(=O)[C@H](CC(C)C)NC(=O)[C@@H]1CCCN1C(=O)[C@@H](NC(=O)[C@H](CO)NC(=O)[C@H](C)NC(=O)[C@H](CCC(N)=O)NC(=O)[C@H](CC(N)=O)NC(=O)[C@H](Cc1c[nH]cn1)NC(=O)[C@H](CC(C)C)NC(=O)CCCC[C@@H]1SC[C@@H]2NC(=O)N[C@@H]21)C(C)C)C(=O)O` [Kir2.1 (inwardly rect. K+ channel)] (Biotin-LHNQASVPLEPRPLRRESEI-OH; C-terminus assumed), the Kd ([3]; PDZ DLG1, PDZ Domain 1, 2, titration of the PL peptide, read-out: Peptide Optimal Conc (Kd, dissociation constant)) was 5000 nM.
`CC(C)C[C@H](NC(=O)[C@H](Cc1c[nH]c2ccccc12)NC(=O)[C@H](Cc1c[nH]cn1)NC(=O)[C@H](CCCNC(=N)N)NC(=O)[C@H](CC(C)C)NC(=O)[C@@H](NC(=O)[C@H](Cc1ccccc1)NC(=O)[C@H](CCC(N)=O)NC(=O)[C@H](CCCNC(=N)N)NC(=O)[C@@H](NC(=O)[C@H](CCC(=O)O)NC(=O)CNC(=O)[C@H](CCCNC(=N)N)NC(=O)[C@H](CC(=O)O)NC(=O)[C@@H](NC(=O)[C@H](CC(C)C)NC(=O)[C@H](CCC(=O)O)NC(=O)[C@H](CCCNC(=N)N)NC(=O)CCCC[C@@H]1SC[C@@H]2NC(=O)N[C@@H]21)C(C)C)C(C)C)[C@@H](C)O)C(=O)N[C@@H](CCCCN)C(=O)N[C@H](C(=O)O)C(C)C` [Dopamine transporter (Na+-dependent)] (Biotin-RELVDRGEVRQFTLRHWLKV-OH; C-terminus assumed) was tested, and the Kd [4, 6] was 900 nM.
`CC[C@H](C)[C@H](NC(=O)[C@H](CO)NC(=O)[C@@H](NC(=O)[C@H](Cc1ccccc1)NC(=O)[C@H](CO)NC(=O)CCCC[C@@H]1SC[C@@H]2NC(=O)N[C@@H]21)[C@@H](C)O)C(=O)N[C@@H](CC(C)C)C(=O)N[C@H](C(=O)N[C@@H](CS)C(=O)N[C@@H](Cc1c[nH]cn1)C(=O)N[C@@H](CCC(N)=O)C(=O)N[C@@H](CCCNC(=N)N)C(=O)N[C@@H](CCCNC(=N)N)C(=O)N[C@H](C(=O)N[C@@H](CCC(N)=O)C(=O)N[C@@H](CCCNC(=N)N)C(=O)N[C@@H](CCCCN)C(=O)N[C@@H](CCC(=O)O)C(=O)N[C@H](C(=O)N[C@H](C(=O)N[C@@H](C)C(=O)O)C(C)C)[C@@H](C)O)[C@@H](C)O)[C@@H](C)O` [GluR5-2 (rat)] was tested, and the Kd ([5]; PDZ PSD95, PDZ Domain 3, titration of the PL peptide, read-out: Peptide Optimal Conc (Kd, dissociation constant)) was 100 nM.
`CC[C@H](C)[C@H](NC(=O)[C@H](C)NC(=O)[C@H](CC(C)C)NC(=O)[C@H](Cc1c[nH]c2ccccc12)NC(=O)[C@H](Cc1c[nH]cn1)NC(=O)[C@H](CCC(N)=O)NC(=O)[C@H](CC(C)C)NC(=O)[C@H](CCC(N)=O)NC(=O)[C@H](Cc1ccccc1)NC(=O)[C@H](CCC(N)=O)NC(=O)[C@H](CCCNC(=N)N)NC(=O)[C@@H](NC(=O)[C@H](CC(=O)O)NC(=O)[C@H](CCCNC(=N)N)NC(=O)[C@H](CCC(N)=O)NC(=O)[C@H](C)NC(=O)[C@@H](NC(=O)[C@H](CC(C)C)NC(=O)[C@H](Cc1c[nH]cn1)NC(=O)[C@H](Cc1c[nH]cn1)NC(=O)CCCC[C@@H]1SC[C@@H]2NC(=O)N[C@@H]21)C(C)C)[C@@H](C)CC)C(=O)O` [noradrenaline transporter] (Biotin-HHLVAQRDIRQFQLQHWLAI-OH; C-terminus assumed) gave a Kd [1, 7] of 600 nM and a Kd [4, 7] of 1000 nM.
`CC[C@H](C)[C@H](NC(=O)[C@H](CCCCN)NC(=O)[C@@H](NC(=O)[C@H](CO)NC(=O)[C@@H]1CCCN1C(=O)[C@H](Cc1ccccc1)NC(=O)[C@@H](NC(=O)[C@@H](NC(=O)[C@H](CCCNC(=N)N)NC(=O)[C@H](CCC(=O)O)NC(=O)[C@H](CC(C)C)NC(=O)[C@H](CC(C)C)NC(=O)[C@H](CC(C)C)NC(=O)[C@@H](NC(=O)CNC(=O)[C@@H](NC(=O)CCCC[C@@H]1SC[C@@H]2NC(=O)N[C@@H]21)C(C)C)[C@@H](C)O)C(C)C)[C@@H](C)CC)C(C)C)C(=O)N[C@@H](C)C(=O)N[C@H](C(=O)N[C@@H](CC(C)C)C(=O)N[C@H](C(=O)O)C(C)C)[C@@H](C)O` [Adenovirus E4 Type9] gave a Kd ([3]; PDZ DLG1, PDZ Domain 1, Protein Optimal Conc 0.5, read-out: Peptide Optimal Conc (Kd by titration of the PL peptide)) of 100 nM, a Kd ([3]; PDZ DLG1, PDZ Domain 2, Protein Optimal Conc 0.3, read-out: Peptide Optimal Conc (Kd by titration of the PL peptide)) of 30 nM and a Kd ([2]; Protein Optimal Conc 0.5) of 50 nM. For the same compound, the Kd ([5]; PDZ PSD95, PDZ Domain 1, Protein Optimal Conc 5, read-out: Peptide Optimal Conc (Kd by titration of the PL peptide)) was 100 nM.
For `CC[C@H](C)[C@H](NC(=O)[C@H](CCC(N)=O)NC(=O)CCCC[C@@H]1SC[C@@H]2NC(=O)N[C@@H]21)C(=O)N[C@@H](CO)C(=O)N1CCC[C@H]1C(=O)NCC(=O)NCC(=O)N[C@@H](CC(C)C)C(=O)N[C@@H](CCC(=O)O)C(=O)N1CCC[C@H]1C(=O)N1CCC[C@H]1C(=O)N[C@@H](CO)C(=O)N[C@@H](CCC(=O)O)C(=O)N[C@@H](CCCCN)C(=O)N[C@@H](Cc1c[nH]cn1)C(=O)N[C@@H](Cc1ccccc1)C(=O)N[C@@H](CCCNC(=N)N)C(=O)N[C@@H](CCC(=O)O)C(=O)N[C@H](C(=O)N[C@@H](CCC(=O)O)C(=O)N[C@H](C(=O)O)C(C)C)[C@@H](C)O` [Tax], the “competition for binding to TIP-1 with labeled CD95 (FIG. 2B)” value (TIP-1 (GST-TIP-1); unlabeled 8 amino acid Tax competitor at 20, 100, and 500 μM, 20 μM labeled CD95 20-mer) was “able to compete” and the “excess able to compete effectively for TIP-1 binding” value (TIP-1 (GST-TIP-1); unlabeled Tax 8-mer versus labeled CD95) was 5 fold.
